In patent US12472208B2 (priority 2013, dated 2025):

Legend:
DNA = conditions: cited from earlier work
[1] = test system: cold, flu, or other respiratory illness; conditions: in vivo
[2] = test system: illness spreading through the player population; conditions: over 300 players, 2014 training period, about 4 hours per day, PHPG about 0.3 ppm; historically two to five players miss three to four days per week
[3] = test system: bronchitis, colds, or flu; conditions: in vivo

Row | Structure (SMILES) | mutagenicity / safety (DNA) | subjects contracting cold, flu, or other respiratory illness [1] | adverse effects of exposure (subject; continuous exposure) | toxicity (subject; levels up to 7 ppm) | players missing training days due to illness during spring training [2] | occurrence of bronchitis, colds, or flu [3]
1 | N#CSO [OSCN−, hypothiocyanate] | non-mutagenic | – | – | – | – | –
2 | OO [PHPG, hydrogen peroxide] | – | none of the subjects contracted cold, flu, or other respiratory illness | no adverse effects | non-toxic | only one player missed one training day due to illness | did not suffer bronchitis, colds, or flu
